Reference: patent US20230203043A1, “NOVEL IMIDAZOPYRAZINE DERIVATIVES” (Hoffmann-La Roche Inc., priority 2020, published 2023)
Counter-ions that a name gives are not always drawn.

What follows are compounds tested on Acinetobacter baumannii ATCC17961 (assay: Antimicrobial susceptibility testing: 90% growth inhibitory concentration (IC90) determination in Iso-Sensitest broth, OD600 growth). Settings: Acinetobacter baumannii, ATCC17961, 16 h, read-out: A. baumannii ATCC 17961 IC90 (uM), strain ATCC 17961, OD600 growth over 16 h.
Assay type: cell-based
In short: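 OD600 read every 20 min for 16 h at 35±2° C; inhibition taken in log phase to derive IC90. Twofold, 10-point dilutions (e.g. 50–0.097 μM final), inoculum ~5×10^(5) CFU/ml.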

Structure (SMILES)	IC90 [µM]
Cc1cc(Nc2nccn3c(-c4cn(CC#N)nc4C(F)(F)F)cnc23)ccc1C(=O)N1CCN(C(=O)C2(O)CCNCC2)CC1 [Example 425, formic acid; 2-[4-[8-[4-[4-(4-hydroxypiperidine-4-carbonyl]piperazine-1-carbonyl]-3-methylanilino]imidazo[1,2-a]pyrazin-3-yl]-3-(trifluoromethyl)pyrazol-1-yl]acetonitrile]	0.691
Cc1cc(Nc2nccn3c(-c4cn(CC#N)nc4C(F)(F)F)cnc23)ccc1C(=O)N1CCN(C(=O)[C@H]2C[C@H](O)CN2)CC1 [Example 426, formic acid; 2-[4-[8-[4-[4-[(2R,4S)-4-hydroxypyrrolidine-2-carbonyl]piperazine-1-carbonyl]-3-methylanilino]imidazo[1,2-a]pyrazin-3-yl]-3-(trifluoromethyl)pyrazol-1-yl]acetonitrile]	0.948
Cc1cc(Nc2nccn3c(-c4c[nH]nc4C(F)(F)F)cnc23)ccc1C(=O)N1CCN(C(=O)NCCN)CC1 [Example 428, N-(2-aminoethyl)-4-[2-methyl-4-[[3-[3-(trifluoromethyl)-1H-pyrazol-4-yl]imidazo[1,2-a]pyrazin-8-yl]amino]benzoyl]piperazine-1-carboxamide formate]	0.465
O=C(NCCCNC(=O)[C@@H]1C[C@@H](O)CN1)c1ccc(Nc2nccn3c(-c4c[nH]nc4C(F)(F)F)cnc23)cc1Cl [Example 429, (2S,4R)-N-[3-[[2-chloro-4-[[3-[3-(trifluoromethyl)-1H-pyrazol-4-yl]imidazo[1,2-a]pyrazin-8-yl]amino]benzoyl]amino]propyl]-4-hydroxypyrrolidine-2-carboxamide formate]	1.07
CCc1cc(Nc2nccn3c(-c4c[nH]nc4C(F)(F)F)cnc23)ccc1C(=O)NCCNC(=O)[C@@H]1C[C@@H](O)CN1 [Example 432, (2S,4R)-N-[2-[[2-ethyl-4-[[3-[3-(trifluoromethyl)-1H-pyrazol-4-yl]imidazo[1,2-a]pyrazin-8-yl]amino]benzoyl]amino]ethyl]-4-hydroxypyrrolidine-2-carboxamide formate]	0.751
O=C(NCCNC(=O)[C@@H]1C[C@@H](O)CN1)c1ccc(Nc2nccn3c(-c4c[nH]nc4C(F)(F)F)cnc23)cc1Cl [Example 433, (2S,4R)-N-[2-[[2-chloro-4-[[3-[3-(trifluoromethyl)-1H-pyrazol-4-yl]imidazo[1,2-a]pyrazin-8-yl]amino]benzoyl]amino]ethyl]-4-hydroxypyrrolidine-2-carboxamide formate]	2.66
CCc1cc(Nc2nccn3c(-c4c[nH]nc4C(F)(F)F)cnc23)ccc1C(=O)NCCCNC(=O)[C@@H]1C[C@@H](O)CN1 [Example 434, (2S,4R)-N-[3-[[2-ethyl-4-[[3-[3-(trifluoromethyl)-1H-pyrazol-4-yl]imidazo[1,2-a]pyrazin-8-yl]amino]benzoyl]amino]propyl]-4-hydroxypyrrolidine-2-carboxamide formate]	0.463
CCc1cc(Nc2nccn3c(-c4c[nH]nc4C(F)(F)F)cnc23)ccc1C(=O)NCCNC(=O)[C@@H]1C[C@@](O)(CC)CN1 [Example 435, (2S,4S)-4-ethyl-N-[2-[[2-ethyl-4-[[3-[3-(trifluoromethyl)-1H-pyrazol-4-yl]imidazo[1,2-a]pyrazin-8-yl]amino]benzoyl]amino]ethyl]-4-hydroxypyrrolidine-2-carboxamide formate]	2.69
O=C(N[C@H]1CNC[C@@H]1O)N1CCN(C(=O)c2ccc(Nc3nccn4c(-c5c[nH]nc5C(F)(F)F)cnc34)cc2Cl)CC1 [Example 440, 4-[2-chloro-4-[[3-[3-(trifluoromethyl)-1H-pyrazol-4-yl]imidazo[1,2-a]pyrazin-8-yl]amino]benzoyl]-N-[(3S,4S)-4-hydroxypyrrolidin-3-yl]piperazine-1-carboxamide formate]	0.497
O=C(N[C@@H]1CNC[C@H]1O)N1CCN(C(=O)c2ccc(Nc3nccn4c(-c5c[nH]nc5C(F)(F)F)cnc34)cc2Cl)CC1 [Example 441, 4-[2-chloro-4-[[3-[3-(trifluoromethyl)-1H-pyrazol-4-yl]imidazo[1,2-a]pyrazin-8-yl]amino]benzoyl]-N-[(3R,4R)-4-hydroxypyrrolidin-3-yl]piperazine-1-carboxamide formate]	0.617
Cc1cc(Nc2nccn3c(-c4c[nH]nc4C(F)(F)F)cnc23)ccc1C(=O)NCCCNC(=O)[C@@H]1C[C@@H](O)CN1 [Example 442, formic acid; (2S,4R)-4-hydroxy-N-[3-[[2-methyl-4-[[3-[3-(trifluoromethyl)-1H-pyrazol-4-yl]imidazo[1,2-a]pyrazin-8-yl]amino]benzoyl]amino]propyl]pyrrolidine-2-carboxamide]	0.622
C[C@@]1(O)CN[C@H](C(=O)N2CCN(C(=O)c3ccc(Nc4nccn5c(-c6c[nH]nc6C(F)(F)F)cnc45)cc3Cl)CC2)C1 [Example 443, [2-chloro-4-[[3-[3-(trifluoromethyl)-1H-pyrazol-4-yl]imidazo[1,2-a]pyrazin-8-yl]amino]phenyl]-[4-[(2S,4S)-4-hydroxy-4-methylpyrrolidine-2-carbonyl]piperazin-1-yl]methanone formate]	0.81
Cc1cc(Nc2nccn3c(-c4c[nH]nc4C(F)(F)F)cnc23)ccc1C(=O)NCCNC(=O)[C@@H]1C[C@@H](O)CN1 [Example 444, formic acid; (2S,4R)-4-hydroxy-N-[2-[[2-methyl-4-[[3-[3-(trifluoromethyl)-1H-pyrazol-4-yl]imidazo[1,2-a]pyrazin-8-yl]amino]benzoyl]amino]ethyl]pyrrolidine-2-carboxamide]	1.43
CCc1cc(Nc2nccn3c(-c4cn(C)nc4C(F)(F)F)cnc23)ccc1C(=O)NCCNC(=O)[C@@H]1C[C@@H](O)CN1 [Example 445, (2S,4R)-N-[2-[[2-ethyl-4-[[3-[1-methyl-3-(trifluoromethyl)pyrazol-4-yl]imidazo[1,2-a]pyrazin-8-yl]amino]benzoyl]amino]ethyl]-4-hydroxypyrrolidine-2-carboxamide formate]	1.48
CCc1cc(Nc2nccn3c(-c4cn(C)nc4C(F)(F)F)cnc23)ccc1C(=O)NCCNC(=O)[C@@H]1C[C@@](O)(CC)CN1 [Example 446, (2S,4S)-4-ethyl-N-[2-[[2-ethyl-4-[[3-[1-methyl-3-(trifluoromethyl)pyrazol-4-yl]imidazo[1,2-a]pyrazin-8-yl]amino]benzoyl]amino]ethyl]-4-hydroxypyrrolidine-2-carboxamide formate]	2.27
CCc1cc(Nc2nccn3c(-c4cn(C)nc4C(F)(F)F)cnc23)ccc1C(=O)NCCNC(=O)[C@@H]1C[C@](C)(O)CN1 [Example 447, (2S,4S)-N-[2-[[2-ethyl-4-[[3-[1-methyl-3-(trifluoromethyl)pyrazol-4-yl]imidazo[1,2-a]pyrazin-8-yl]amino]benzoyl]amino]ethyl]-4-hydroxy-4-methylpyrrolidine-2-carboxamide formate]	4.19
O=C(c1ccc(Nc2nccn3c(-c4c[nH]nc4C(F)(F)F)cnc23)cc1Cl)N1CCN(C(=O)[C@@H]2C[C@@H](O)CN2)CC1 [Example 448, [2-chloro-4-[[3-[3-(trifluoromethyl)-1H-pyrazol-4-yl]imidazo[1,2-a]pyrazin-8-yl]amino]phenyl]-[4-[(2S,4R)-4-hydroxypyrrolidine-2-carbonyl]piperazin-1-yl]methanone formate]	0.235
O=C(c1ccc(Nc2nccn3c(-c4c[nH]nc4C(F)(F)F)cnc23)cc1Cl)N1CCN(C(=O)C2(O)CCNCC2)CC1 [Example 449, [2-chloro-4-[[3-[3-(trifluoromethyl)-1H-pyrazol-4-yl]imidazo[1,2-a]pyrazin-8-yl]amino]phenyl]-[4-(4-hydroxypiperidine-4-carbonyl)piperazin-1-yl]methanone formate]	0.301
O=C(c1ccc(Nc2nccn3c(-c4c[nH]nc4C(F)(F)F)cnc23)cc1Cl)N1CCN(C(=O)[C@@H]2CCNC[C@@H]2O)CC1 [Example 450, [2-chloro-4-[[3-[3-(trifluoromethyl)-1H-pyrazol-4-yl]imidazo[1,2-a]pyrazin-8-yl]amino]phenyl]-[4-[(3R,4R)-3-hydroxypiperidine-4-carbonyl]piperazin-1-yl]methanone formate]	0.306

Same assay, conditions: Acinetobacter baumannii, ATCC17961, 16 h, strain ATCC 17961, OD600 growth over 16 h, read-out: A. baumannii ATCC 17961 IC90

IC90 [µM]	Structure (SMILES)
2.14	CCc1cc(Nc2nccn3c(-c4c[nH]nc4C(F)F)cnc23)ccc1C(=O)NCCOCCN [Example 430, N-[2-(2-aminoethoxy)ethyl]-4-[[3-[3-(difluoromethyl)-1H-pyrazol-4-yl]imidazo[1,2-a]pyrazin-8-yl]amino]-2-ethylbenzamide]
0.449	O=C(c1ccc(Nc2nccn3c(-c4c[nH]nc4C(F)(F)F)cnc23)cc1Cl)N1CCNCC1 [Example 431, [2-chloro-4-[[3-[3-(trifluoromethyl)-1H-pyrazol-4-yl]imidazo[1,2-a]pyrazin-8-yl]amino]phenyl]-piperazin-1-ylmethanone]
0.536	Cc1cc(Nc2nccn3c(-c4c[nH]nc4C(F)(F)F)cnc23)ccc1C(=O)N1CCN(C(=O)C2(O)CCCNC2)CC1 (centres unmarked) [Example 436, [4-(3-hydroxypiperidine-3-carbonyl)piperazin-1-yl]-[2-methyl-4-[[3-[3-(trifluoromethyl)-1H-pyrazol-4-yl]imidazo[1,2-a]pyrazin-8-yl]amino]phenyl]methanone hydrochloride]
1.02	CCc1cc(Nc2nccn3c(-c4cn(C)nc4C(F)(F)F)cnc23)ccc1C(=O)NCCCNC(=O)[C@@H]1C[C@@H](O)CN1 [Example 437, (2S,4R)-N-[3-[[2-ethyl-4-[[3-[1-methyl-3-(trifluoromethyl)pyrazol-4-yl]imidazo[1,2-a]pyrazin-8-yl]amino]benzoyl]amino]propyl]-4-hydroxypyrrolidine-2-carboxamide]
